Measurements: the supplement of paper PMC10307832

Legend:
Assay in all cases: relative viability (nuclei count vs DMSO), 5 days (fraction); higher = more cells survive
[1] = compound: CCN(CCO)CCCC(C)Nc1ccnc2cc(Cl)ccc12 [Hydroxychloroquine] + NC(=O)Nc1cc(-c2cccc(F)c2)sc1C(=O)N[C@H]1CCCNC1 [AZD7762] (partner 0.2 µM)
Outline: (§1)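 Five library-drug doses in √10 steps were combined with a fixed anchor-drug dose, or a single drug was given alone, by pin tool to lung cancer cell lines in 1536-well plates the day after seeding. Nuclei were stained and counted after 5 days. Relative viability is the nuclei count in treated wells over that in vehicle wells, taken as the median of duplicate plates.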

[2] = compound: CCN(CCO)CCCC(C)Nc1ccnc2cc(Cl)ccc12 [Hydroxychloroquine] + CS(=O)(=O)N1CCN(Cc2cc3nc(-c4cccc5[nH]ncc45)nc(N4CCOCC4)c3s2)CC1 [Pictilisib] (partner 1 µM)
Outline: as §1

[3] = compound: CCN(CCO)CCCC(C)Nc1ccnc2cc(Cl)ccc12 [Hydroxychloroquine] + N=C(N)NC(=N)NCCc1ccccc1 [Phenformin] (partner 250 µM)
Outline: as §1

[4] = compound: CCN(CCO)CCCC(C)Nc1ccnc2cc(Cl)ccc12 [Hydroxychloroquine] + Cc1nc(NC(=O)N2CCC[C@H]2C(N)=O)sc1-c1ccnc(C(C)(C)C(F)(F)F)c1 [Alpelisib] (partner 2 µM)
Outline: as §1

Cell Line	relative viability ([1]; first compound 0.5 µM)	relative viability ([1]; first compound 1.581 µM)	relative viability ([1]; first compound 5 µM)	relative viability ([1]; first compound 15.81 µM)	relative viability ([1]; first compound 50 µM)	relative viability ([2]; first compound 0.5 µM)	relative viability ([2]; first compound 1.581 µM)	relative viability ([2]; first compound 5 µM)	relative viability ([2]; first compound 15.81 µM)	relative viability ([2]; first compound 50 µM)	relative viability ([3]; first compound 0.5 µM)	relative viability ([3]; first compound 1.581 µM)	relative viability ([3]; first compound 5 µM)	relative viability ([3]; first compound 15.81 µM)	relative viability ([3]; first compound 50 µM)	relative viability ([4]; first compound 0.5 µM)	relative viability ([4]; first compound 1.581 µM)	relative viability ([4]; first compound 5 µM)	relative viability ([4]; first compound 15.81 µM)	relative viability ([4]; first compound 50 µM)
201T	0.571	0.809	0.759	0.59	0.658	0.687	0.555	0.641	0.631	0.698	0.441	0.428	0.449	0.419	0.526	1.03	0.916	1.02	1.03	1.01
A-427	0.727	0.802	0.769	0.696	0.671	0.713	0.624	0.674	0.585	0.628	0.316	0.293	0.315	0.284	0.229	1.06	1.03	1.04	0.956	1.1
ABC-1	0.754	0.917	0.797	0.995	0.711	0.75	0.761	0.783	0.815	0.737	0.244	0.205	0.237	0.192	0.206	1.27	1.03	0.924	0.949	0.942
BEN	0.795	0.652	0.767	0.776	0.759	0.615	0.465	0.49	0.6	0.676	0.255	0.26	0.234	0.241	0.303	1.04	1.04	0.981	1.06	1.32
CAL-12T	0.571	0.804	0.596	0.599	0.659	0.793		0.382	0.35	0.598	0.585	0.593	0.587	0.599	0.519	1.24	1.16	1.32	1.42	1.69
COR-L23						0.585	0.84	0.875	0.899	0.968	0.445	0.467	0.496	0.49	0.485	0.739	0.813	0.899	0.961	0.906
COR-L 105						0.392	0.435	0.425	0.325	0.338	0.529	0.476	0.497	0.351	0.447	1.13	1	1.08	0.765	0.87
Calu-6						0.997	0.785	0.949	0.962	0.986						1.01	0.881	0.896	0.939	0.924
ChaGo-K-1	0.775	0.88	0.821	0.901	0.998	0.873	0.506	0.383	0.662	0.64	0.509	0.542	0.438	0.501	0.522					
EBC-1						0.367	0.307	0.374	0.354	0.295						1.01	0.572	0.784	0.688	0.599
EKVX	0.549	0.772	0.753	0.653	0.759	0.458	0.383	0.476	0.427	0.476	0.249	0.192	0.249	0.243	0.208	0.964	0.867	0.844	0.846	0.912
EMC-BAC-2	1.12	0.887	1.01	1.07	1.11	0.593	0.417	0.547	0.55	0.612	0.543	0.385	0.497	0.523	0.503	0.736	0.708	0.767	0.727	0.75
EPLC-272H	0.168	0.207	0.214	0.232	0.193	0.282	0.246	0.333	0.297	0.349	0.267	0.312	0.273	0.309	0.241	0.928	0.858	0.94	0.998	0.919
H3255	0.857	0.897	0.875	0.882	0.891	0.513	0.517	0.462	0.474	0.507	0.332	0.368	0.326	0.356	0.313	0.759	0.612	0.727	0.675	0.72
HARA	0.263	0.373	0.405	0.219	0.376	0.316	0.383	0.508	0.407	0.362	0.475	0.406	0.519	0.442	0.465	0.763	0.856	0.863	0.805	0.841
HCC-15	1.29	1.15	1.11	1.35	1.49	0.773	0.668	0.749	0.744	0.659	0.461	0.465	0.522	0.497	0.456	0.925	0.841	0.839	0.879	0.909
HCC-44	1.07	1.04	1.08	1.06	0.975	0.475	0.61	0.588	0.552	0.661	0.316	0.145	0.171	0.226	0.234	0.815	0.838	0.86	0.922	0.902

Cell Line	relative viability ([1]; first compound 0.5 µM)	relative viability ([1]; first compound 1.581 µM)	relative viability ([1]; first compound 5 µM)	relative viability ([1]; first compound 15.81 µM)	relative viability ([1]; first compound 50 µM)	relative viability ([2]; first compound 0.5 µM)	relative viability ([2]; first compound 1.581 µM)	relative viability ([2]; first compound 5 µM)	relative viability ([2]; first compound 15.81 µM)	relative viability ([2]; first compound 50 µM)	relative viability ([3]; first compound 0.5 µM)	relative viability ([3]; first compound 1.581 µM)	relative viability ([3]; first compound 5 µM)	relative viability ([3]; first compound 15.81 µM)	relative viability ([3]; first compound 50 µM)	relative viability ([4]; first compound 0.5 µM)	relative viability ([4]; first compound 1.581 µM)	relative viability ([4]; first compound 5 µM)	relative viability ([4]; first compound 15.81 µM)	relative viability ([4]; first compound 50 µM)
HCC-78	0.595	0.754	0.605	0.661	0.641	0.21	0.176	0.221	0.224	0.165	0.809	0.739	0.716	0.653	0.741	0.394	0.299	0.316	0.331	0.31
IA-LM						0.296	0.357	0.361	0.433	0.338						0.878	0.377	0.811	0.607	0.887
NCI-H520						0.338	0.255	0.29	0.354	0.387	0.539	0.403	0.649	0.683	0.628	1.04	0.776	0.901	0.999	0.89
NCI-H661						0.472	0.413	0.406	0.384	0.358	0.275	0.259	0.3	0.243	0.254	0.665	0.567	0.795	0.547	0.481
NCI-H1299						0.805	0.682	0.867	0.845	0.746						0.999	1.04	1.03	1.12	0.996
NCI-H1563						0.694	0.605	0.574	0.627	0.596	0.677	0.652	0.649	0.635	0.635	0.908	0.877	1	0.888	0.871
NCI-H1648	0.657	0.758	0.575	0.531	0.562															
NCI-H1650						0.558	0.578	0.49	0.542	0.599	0.473	0.507	0.404	0.402	0.303					
NCI-H1703	0.196	0.159	0.135	0.114	0.137	0.272	0.241	0.224	0.263	0.216						0.401	0.21	0.326	0.343	0.367
NCI-H2009						0.844	0.776	0.901	0.803	0.989	0.502	0.475	0.491	0.486	0.469	1.19	1.24	1.26	1.17	1.09
NCI-H2023						0.332	0.23	0.23	0.224	0.249	0.423	0.433	0.436	0.4	0.386	0.547	0.47	0.636	0.605	0.601
NCI-H2228						0.403	0.375	0.339	0.412	0.398	0.265	0.342	0.348	0.407	0.292	0.705	0.546	0.682	0.549	0.735
NCI-H2342	0.458	0.47	0.522	0.463	0.449						0.59	0.588	0.561	0.619	0.645					
SK-LU-1						0.567	0.529	0.568	0.474	0.543	0.505	0.528	0.544	0.538	0.429	0.964	0.852	1.05	1.06	1.03
SK-MES-1						0.4	0.373	0.321	0.342	0.359	0.668	0.741	0.723	0.693	0.635	0.697	0.765	1.01	0.952	0.929
SW 1573						0.484	0.392	0.535	0.528	0.603	0.356	0.333	0.402	0.402	0.368	0.703	0.767	0.893	0.796	0.826
UMC-11						0.843	0.542	0.752	0.844	1.03		0.305	0.308	0.315	0.335	0.841	0.956	0.962	1.06	1.2
